No end group written: not given here.
Test: Toxicology: repeated subcutaneous administration to cats
Assay type: in vivo
Settings: repeated s.c. administration of increasing doses up to 16 μg/kg body weight

## RSLQNTEEKSRSFPAPQTDPLDDPDQMTED [GRPP]
  adverse effects: did not cause any adverse effects

— patent publication US4405608A, “Novel peptide” (Novo Industri A/S, priority 1981, dated 1983)
